Results published in patent US10273226B2, “Pyrazolyl-heteroarylamides as pesticides” (Bayer Animal Health GmbH, priority 2014, dated 2019).

How the values were obtained:
Format in all cases: in vivo
Spodoptera frugiperda = Spodoptera frugiperda spray test; conditions: application rate 100 g/ha; caterpillars; after 7 days
Protocol: Spodoptera frugiperda—Spray Test
(§1) To produce an appropriate active ingredient formulation, 1 part by weight of active ingredient is dissolved using the specified parts by weight of solvent and made up with water containing an emulsifier concentration of 1000 ppm until the desired concentration is attained. To produce further test concentrations, the preparation is diluted with emulsifier-containing water.
Leaf discs of maize (Zea mays) are sprayed with an active ingredient formulation of the desired concentration and, after drying, populated with caterpillars of the armyworm (Spodoptera frugiperda).
After 7 days, efficacy in % is determined. 100% means that all the caterpillars have been killed; 0% means that no caterpillars have been killed.

Ctenocephalides felis [1] = experiment: Ctenocephalides felis oral test; conditions: application rate 100 ppm in citrated cattle blood; after 2 days
Protocol: Ctenocephalides felis—Oral Test
(§2) Solvent: dimethyl sulphoxide
For the purpose of producing an appropriate active ingredient formulation, 10 mg of active ingredient are mixed with 0.5 ml of dimethyl sulphoxide. Dilution with citrated cattle blood gives the desired concentration.
About 20 unfed adult cat fleas (Ctenocephalides felis) are placed into a chamber which is closed at the top and bottom with gauze. A metal cylinder whose bottom end is closed with parafilm is placed onto the chamber. The cylinder contains the blood/active ingredient preparation, which can be imbibed by the fleas through the parafilm membrane.
After 2 days, the kill in % is determined. 100% means that all of the fleas have been killed; 0% means that none of the fleas have been killed.

Boophilus microplus = Boophilus microplus injection test; conditions: application rate 20 μg/animal; injection into abdomen; assessed after 7 days
Protocol: Boophilus microplus—Injection Test
as §2
To produce an appropriate active ingredient formulation, 10 mg of active ingredient are mixed with 0.5 ml of solvent and the concentrate is diluted with solvent to the desired concentration.
1 μl of the active ingredient solution is injected into the abdomen of 5 engorged adult female cattle ticks (Boophilus microplus). The animals are transferred into dishes and kept in a climate-controlled room.
Efficacy is assessed after 7 days by laying of fertile eggs. Eggs which are not visibly fertile are stored in a climate-controlled cabinet until the larvae hatch after about 42 days. An efficacy of 100% means that none of the ticks has laid any fertile eggs; 0% means that all the eggs are fertile.

Musca domestica = Musca domestica test; conditions: application rate 100 ppm; adult houseflies; after 2 days
Protocol: as §2
(§3) To produce an appropriate active ingredient formulation, 10 mg of active ingredient are mixed with 0.5 ml of dimethyl sulphoxide, and the concentrate is diluted with water to the desired concentration.
Vessels containing a sponge treated with sugar solution and the active ingredient formulation of the desired concentration are populated with 10 adult houseflies (Musca domestica).
After 2 days, the kill in % is determined. 100% means that all of the flies have been killed; 0% means that none of the flies have been killed.

Lucilia cuprina = Lucilia cuprina test; conditions: application rate 100 ppm; L1 larvae; after 2 days
Protocol: as §2, §3
About 20 L1 larvae of the Australian sheep blowfly (Lucilia cuprina) are transferred into a test vessel containing minced horsemeat and the active ingredient preparation of the desired concentration.
After 2 days, the kill in % is determined. 100% means that all the larvae have been killed and 0% means that none of the larvae have been killed.

Phaedon cochleariae = Phaedon cochleariae spray test; conditions: application rate 100 g/ha; larvae; after 7 days
Protocol: Phaedon cochleariae—Spray Test
as §1
Discs of Chinese cabbage leaves (Brassica pekinensis) are sprayed with an active ingredient formulation of the desired concentration and, after drying, populated with larvae of the mustard beetle (Phaedon cochleariae).
After 7 days, efficacy in % is determined. 100% means that all the beetle larvae have been killed; 0% means that no beetle larvae have been killed.

Tetranychus urticae = Tetranychus urticae spray test, OP-resistant; conditions: application rate 100 g/ha; after 6 days
Protocol: Tetranychus urticae—Spray Test, OP-Resistant
as §1
Discs of bean leaves (Phaseolus vulgaris) infested by all stages of the greenhouse red spider mite (Tetranychus urticae) are sprayed with an active ingredient formulation of the desired concentration.
After 6 days, efficacy in % is determined. 100% means that all the spider mites have been killed; 0% means that none of the spider mites have been killed.

Rhipicephalus sanguineus = Rhipicephalus sanguineus in vitro contact test with adult brown dog ticks; conditions: application rate 5 μg/cm^2 (500 g/ha); after 48 h; ticks dead or moribund
Protocol: Rhipicephalus sanguineus—In Vitro Contact Tests with Adult Brown Dog Ticks
(§4) For the coating of the test tubes, 9 mg of active ingredient are first dissolved in 1 ml of acetone p.a. and then diluted to the desired concentration with acetone p.a. 250 μl of the solution are distributed homogeneously on the inner walls and base of a 25 ml test tube by turning and rocking on an orbital shaker (rocking rotation at 30 rpm for 2 h). With 900 ppm active ingredient solution and internal surface 44.7 cm^2, given homogeneous distribution, an area-based dose of 5 μg/cm^2 is achieved.
After the solvent has evaporated off, the tubes are populated with 5-10 adult dog ticks (Rhipicephalus sanguineus), sealed with a perforated plastic lid and incubated in a horizontal position in the dark at room temperature and ambient humidity. After 48 h, efficacy is determined. To this end, the ticks are knocked to the floor of the tube and incubated on a hotplate at 45-50° C. for not more than 5 min. Ticks which remain motionless on the floor or move in such an uncoordinated manner that they are unable to deliberately avoid the heat by climbing upwards are considered to be dead or moribund.
An efficacy of 100% means that all the ticks were dead or moribund. 0% efficacy means that none of the ticks had been harmed.

Ctenocephalides felis [2] = experiment: Ctenocephalides felis in vitro contact test with adult cat fleas; conditions: application rate 5 μg/cm^2 (500 g/ha); after 48 h; fleas dead or moribund
Protocol: Ctenocephalides felis—In Vitro Contact Tests with Adult Cat Fleas
as §4
After the solvent has evaporated off, the tubes are populated with 5-10 adult cat fleas (Ctenocephalides felis), sealed with a perforated plastic lid and incubated in a horizontal position at room temperature and ambient humidity. After 48 h, efficacy is determined. To this end, the test tubes are stood upright and the fleas are knocked to the base of the tube. Fleas which remain motionless at the base or move in an uncoordinated manner are considered to be dead or moribund.
100% efficacy means that all the fleas were dead or moribund. 0% efficacy means that no fleas were harmed.

Compound | efficacy (Spodoptera frugiperda) [%] | efficacy (kill in %) (Ctenocephalides felis [1]) [%] | efficacy (laying of fertile eggs) (Boophilus microplus) [%] | efficacy (kill in %) (Musca domestica) [%] | efficacy (kill in %) (Lucilia cuprina) [%] | efficacy (Phaedon cochleariae) [%] | efficacy (Tetranychus urticae) [%] | efficacy (Rhipicephalus sanguineus) [%] | efficacy (Ctenocephalides felis [2]) [%]
Cc1ncc(-c2cnn(-c3c(C(F)(F)F)c(C(F)(F)C(F)(F)F)nn3C)c2)cc1NC(=O)c1ccncc1 [Example 2-004] | 100 | 100 | 100 | 80 | 100 | 100 | 100 |  | 
Cn1nc(C(F)(F)C(F)(F)F)c(C(F)(F)F)c1-n1cc(-c2ccc(F)c(NC(=O)C3(Cl)CC3)c2)cn1 [Example 1-032] |  | 100 | 100 | 80 | 100 |  |  | 100 | 
Cn1nc(C(F)(F)C(F)(F)F)c(C(F)(F)F)c1-n1cc(-c2ccc(F)c(NC(=O)C(C)(C)c3cccc(Cl)c3)c2)cn1 [Example 1-119] |  |  | 100 | 80 | 100 |  |  |  | 
Cc1ncc(-c2cnn(-c3c(C(F)(F)F)c(C(F)(F)C(F)(F)F)nn3C)c2)cc1NC(=O)c1ccc(F)cc1 [Example 2-003] | 100 | 100 | 100 | 100 | 100 | 100 | 100 | 100 | 
Cn1nc(C(F)(F)C(F)(F)F)c(C(F)(F)F)c1-n1cc(-c2ccc(F)c(NC(=O)c3ccccc3F)c2)cn1 [Example 1-071] | 100 | 90 | 100 | 80 | 100 | 100 | 100 |  | 
Cn1nc(C(F)(F)C(F)(F)F)c(C(F)(F)F)c1-n1cc(-c2ccc(F)c(NC(=O)c3cccnc3)c2)cn1 [Example 1-085] | 83 | 100 | 100 |  | 100 | 100 | 100 | 100 | 100
COc1cc(C(=O)Nc2cc(-c3cnn(-c4c(C(F)(F)F)c(C(F)(F)C(F)(F)F)nn4C)c3)ccc2F)ccc1C [Example 1-097] | 100 | 100 | 100 |  | 100 | 100 | 100 | 100 | 100
Cn1nc(C(F)(F)C(F)(F)F)c(C(F)(F)F)c1-n1cc(-c2ccc(F)c(NC(=O)c3cccc(C#N)c3)c2)cn1 [Example 1-075] |  | 100 | 100 | 100 | 100 |  |  | 100 | 
Cn1nc(C(F)(F)C(F)(F)F)c(C(F)(F)F)c1-n1cc(-c2cccc(NC(=O)CC(F)(F)F)c2)cn1 [Example 1-007] | 100 | 100 | 100 | 100 | 100 | 100 | 90 | 100 | 
Cn1nc(C(F)(F)C(F)(F)F)c(C(F)(F)F)c1-n1cc(-c2ccc(F)c(NC(=O)C3CCCC3)c2)cn1 [Example 1-077] |  | 100 | 100 | 100 | 100 |  |  | 100 | 
Cc1cc(C(=O)Nc2cc(-c3cnn(-c4c(C(F)(F)F)c(C(F)(F)C(F)(F)F)nn4C)c3)ccc2F)ccc1F [Example 1-091] | 100 | 100 | 100 |  | 100 | 100 | 100 | 100 | 100
Cn1nc(C(F)(F)C(F)(F)F)c(C(F)(F)F)c1-n1cc(-c2ccc(F)c(NC(=O)C3CC3)c2)cn1 [Example 1-055] | 100 | 100 | 100 | 100 | 100 | 100 | 90 | 80 | 
Cn1nc(C(F)(F)C(F)(F)F)c(C(F)(F)F)c1-n1cc(-c2ccc(F)c(NC(=O)c3ccc4c(c3)OC(F)(F)O4)c2)cn1 [Example 1-084] | 100 | 100 | 100 | 100 | 100 | 100 |  | 80 | 
Cn1nc(C(F)(F)C(F)(F)F)c(C(F)(F)F)c1-n1cc(-c2ccc(F)c(NC(=O)Cc3ccc(F)cc3Cl)c2)cn1 [Example 1-126] |  | 100 | 100 | 90 | 100 | 100 |  |  | 
Cc1ccc(C(=O)Nc2cc(-c3cnn(-c4c(C(F)(F)F)c(C(F)(F)C(F)(F)F)nn4C)c3)ccc2F)s1 [Example 1-069] | 100 | 100 | 100 |  | 100 | 100 | 90 | 100 | 100
COC1CCC(C(=O)Nc2cc(-c3cnn(-c4c(C(F)(F)F)c(C(F)(F)C(F)(F)F)nn4C)c3)ccc2F)CC1 (mixture of isomers) [Example 1-047] |  | 100 | 100 | 80 | 100 | 100 | 100 |  | 
Cn1nc(C(F)(F)C(F)(F)F)c(C(F)(F)F)c1-n1cc(-c2cccc(NC(=O)C3CC3)c2)cn1 [Example 1-002] | 83 | 100 | 100 | 100 | 100 | 100 |  | 100 | 
